Patent publication US20140228286A1, “SPECIFIC PDE4B-INHIBITORS FOR THE TREATMENT OF DIABETES MELLITUS” (BOEHRINGER INGELHEIM INTERNATIONAL GMBH, priority 2013, published 2014)

Biological target: T1, PDE4B (Homo sapiens, UniProt Q07343)
T1 construct: active site fragment comprising the amino acids 152-484
Experiment: PDE4B Scintillation Proximity (SPA) Assay
Assay type: biochemical
Details: PDE4B active site fragment amino acids 152-484; [3H]cAMP; 30° C., one hour; read-out: Experimentally determined IC50-value for PDE4B inhibition
Source text: The IC50-values of the compounds of the invention (Examples 1.1 to 1.47) with respect to their PDE4B-inhibiting ability have been determined with a Scintillation Proximity (SPA) Assay (GE Healthcare, No. TRKQ7090). The Scintillation Proximity (SPA) Assay is based on the detection of the different affinities of the cyclic 3′-5′adenosine monophosphate (cAMP, low affinity) and the linear 5′-adenosine monophosphate (AMP, high affinity) to yttrium-silicate-scintillator beads. The cAMP-specific phosphodiesterase (PDE) PDE4B cleaves the 3′-phosphodiester bond of the tritium-labelled-[^3H]cAMP to the [^3H]5′-AMP. This [^3H]5′-AMP associates with the scintillator beads because of their higher affinity and causes scintillations (light flashes) which can be measured in a Wallac Microbeta Scintillation Counter.
10 μl of a [^3H]cAMP-solution (0.05 μCi in H2O, 10-30 Ci/mmol) are added to 89 μl of a PDE4B-enzyme-solution (active site fragment comprising the amino acids 152-484; 0.15-0.18 ng) in assay buffer (50 mM Tris HCl pH 7.5; 8.3 mM MgCl2; 1,7 mM ethylene glyclol tetraacetic acid (EGTA); 0.25 mg/ml bovine serum albumin (BSA)) and this mixture is incubated at 30° C. for one hour
a) without the compound to be tested (in the presence of 1 μl dimethylsulfoxide (DMSO), corresponding to 1% DMSO) and b) in the presence of the compound to be tested in a concentration of 125 μM, 25 μM, 5 μM, 1 μM, 200 nM, 40 nM, 8 nM, 1.6 nM, 0.32 nM, 0.064 nM, 0.0128 nM (dilution series in 5er-steps beginning from 125 μM until 0.0128 nM, in the presence of 1% DMSO).
After this incubation the reaction is stopped by the addition of 50 μl of bead-solution (500 mg beads/35 ml H2O, 18 mM zinc sulfate). In the following 45 minutes the beads have the opportunity to form a sediment. After that the scintillations are measured in the scintillation counter. If the tested compound is able to inhibit the enzymatic activity of the PDE4B-enzyme, less [^3H]AMP depending on the concentration of the tested compound is produced and less scintillations are measurable. […] The IC50-value stands for the compound concentration at which the PDE4B enzyme activity is inhibited to a half maximal value. Therefore the lower the IC50-value is the better is the PDE4B inhibition.

T1 sequence (Q07343 324-656): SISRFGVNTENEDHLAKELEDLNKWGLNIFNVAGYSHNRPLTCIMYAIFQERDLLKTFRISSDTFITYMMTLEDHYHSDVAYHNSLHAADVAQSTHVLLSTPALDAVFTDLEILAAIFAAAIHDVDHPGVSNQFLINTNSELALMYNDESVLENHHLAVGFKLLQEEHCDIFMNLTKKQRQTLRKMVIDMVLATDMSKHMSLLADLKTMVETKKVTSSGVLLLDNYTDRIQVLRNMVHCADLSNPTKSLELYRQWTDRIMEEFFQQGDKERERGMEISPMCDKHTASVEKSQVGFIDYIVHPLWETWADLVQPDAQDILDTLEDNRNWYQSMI

`O=C(O)c1ccc(OC2CCN(c3nc4c(c(NC5CCOCC5)n3)[S+]([O-])CC4)CC2)cc1` (stereo not shown) [Example 1.24, 4-{1-[5-oxo-4-(tetrahydropyran-4-ylamino)-6,7-dihydro-5H-5λ^4-thieno[3,2-d]pyrimidin-2-yl]-piperidin-4-yloxy}-benzoic acid] and `CN(C(=O)c1ccc(OC2CCN(c3nc4c(c(NC5CCOCC5)n3)[S+]([O-])CC4)CC2)cc1)C1CC1` (stereo not shown) [Example 1.33, N-cyclopropyl-N-methyl-4-{1-[5-oxo-4-(tetrahydropyran-4-ylamino)-6,7-dihydro-5H-5λ^4-thieno[3,2-d]pyrimidin-2-yl]-piperidin-4-yloxy}-benzamide] are within 1.5-fold of each other in IC50: 7 nM for the first, 7.5 nM for the second.

Going from `CN1C[C@@H](Nc2nc(N3CCC(c4nc5ccccc5o4)CC3)nc3c2[S+]([O-])CC3)CCC1=O` (stereo partly drawn) [Example 1.16, (S)-5-[2-(4-benzoxazol-2-yl-piperidin-1-yl)-5-oxo-6,7-dihydro-5H-5λ^4-thieno[3,2-d]pyrimidin-4-ylamino]-1-methylpiperidin-2-one] to `Cc1oc(C2CCN(c3nc4c(c(N[C@H]5CCC(=O)N(C)C5)n3)[S+]([O-])CC4)CC2)nc1-c1ccccc1` (stereo partly drawn) [Example 1.36, (S)-1-methyl-5-{2-[4-(5-methyl-4-phenyloxazol-2-yl)-piperidin-1-yl]-5-oxo-6,7-dihydro-5H-5λ^4-thieno[3,2-d]pyrimidin-4-ylamino}-piperidin-2-one], the IC50 rises from 0.1 nM to 0.4 nM (4-fold). The first is the more potent here.

First: Cc1nc(C2CCN(c3nc4c(c(NC5(CO)CC5)n3)[S+]([O-])CC4)CC2)oc1-c1ccc(Cl)cc1 (stereo not shown) [Example 1.40, [1-(2-{4-[5-(4-chlorophenyl)-4-methyloxazol-2-yl]-piperidin-1-yl}-5-oxo-6,7-dihydro-5H-5λ^4-thieno[3,2-d]pyrimidin-4-ylamino)-cyclopropyl]-methanol]
Second: [O-][S+]1CCc2nc(N3CCC(c4ccc(Cl)cc4)CC3)nc(NC3(CO)CCC3)c21 (stereo not shown) [Example 1.47, (1-{2-[4-(4-Chloro-phenyl)-piperidin-1-yl]-5-oxo-6,7-dihydro-5H-5λ^4-thieno[3.2-d]pyrimidin-4-yl-amino}-cyclobutyl)-methanol]
The IC50 of the first is 7.2-fold lower: 0.6 nM for the first, 4.3 nM for the second. The first is the more potent here.

First: [O-][S+]1CCc2nc(N3CCC(O)(c4ccc(Cl)cc4)CC3)nc(NC3CCOCC3)c21 (stereo not shown) [Example 1.41, 4-(4-chlorophenyl)-1-[5-oxo-4-(tetrahydropyran-4-ylamino)-6,7-dihydro-5H-5λ^4-thieno[3,2-d]pyrimidin-2-yl]-piperidin-4-ol]
Second: [O-][S+]1CCc2nc(N3CCC(CO)(c4ccc(Cl)cc4)CC3)nc(NC3CCOCC3)c21 (stereo not shown) [Example 1.39, {4-(4-chlorophenyl)-1-[5-oxo-4-(tetrahydropyran-4-ylamino)-6,7-dihydro-5H-5λ^4-thieno[3,2-d]pyrimidin-2-yl]-piperidin-4-yl}-methanol]
The IC50 of the first is 3.7-fold higher: 6.7 nM for the first, 1.8 nM for the second. The second is the more potent here.

Going from `CC(C)(O)[C@H](Nc1nc(N2CCC(c3ccc(Cl)cc3)CC2)nc2c1[S+]([O-])CC2)c1ccc(F)cc1` (stereo partly drawn) [Example 1.4, (R)-1-{2-[4-(4-chlorophenyl)-piperidin-1-yl]-5-oxo-6,7-dihydro-5H-5λ^4-thieno[3,2-d]pyrimidin-4-ylamino}-1-(4-fluorophenyl)-2-methylpropan-2-ol] to `CC(C)(O)C1(Nc2nc(N3CCC(c4ccc(Cl)cc4)CC3)nc3c2[S+]([O-])CC3)CC1` (stereo not shown) [Example 1.25, 2-(1-{2-[4-(4-chlorophenyl)-piperidin-1-yl]-5-oxo-6,7-dihydro-5H-5λ^4-thieno[3,2-d]pyrimidin-4-ylamino}-cyclopropyl)-propan-2-ol], the IC50 falls from 15.3 nM to 1.8 nM (8.5-fold).

Compared with `[O-][S+]1CCc2nc(N3CCC(c4nc5c(o4)CCCC5)CC3)nc(NC3CCOCC3)c21` (stereo not shown) [Example 1.44], `Cn1c(C2CCN(c3nc4c(c(NC5CCOCC5)n3)[S+]([O-])CC4)CC2)nc2cnccc21` (stereo not shown) [Example 1.30, {2-[4-(1-methyl-1H-imidazo[4,5-c]pyridin-2-yl)-piperidin-1-yl]-5-oxo-6,7-dihydro-5H-5λ^4-thieno[3,2-d]pyrimidin-4-yl}-(tetrahydropyran-4-yl)-amine] is 12-fold higher in IC50: 2.7 nM for the first, 33.4 nM for the second. The first is the more potent here.

Compared with `CN(C(=O)c1ccc(C2CCN(c3nc4c(c(NC5CCOCC5)n3)[S+]([O-])CC4)CC2)cc1)C1CC1` (stereo not shown) [Example 1.32, N-cyclopropyl-N-methyl-4-{1-[5-oxo-4-(tetrahydropyran-4-ylamino)-6,7-dihydro-5H-5λ^4-thieno[3,2-d]pyrimidin-2-yl]-piperidin-4-yl}-benzamide], `COC1(c2ccc(Cl)cc2)CCN(c2nc3c(c(NC4CCOCC4)n2)[S+]([O-])CC3)CC1` (stereo not shown) [Example 1.42, {2-[4-(4-chlorophenyl)-4-methoxypiperidin-1-yl]-5-oxo-6,7-dihydro-5H-5λ^4-thieno[3,2-d]pyrimidin-4-yl}-(tetrahydropyran-4-yl)-amine] is 2.2-fold lower in IC50: 8.5 nM for the first, 3.8 nM for the second.

First: [O-][S+]1CCc2nc(N3CCC(c4noc5ccc(F)cc45)CC3)nc(NC3(CO)CC3)c21 (stereo not shown) [Example 1.18, (1-{2-[4-(5-fluorobenzo[d]isoxazol-3-yl)-piperidin-1-yl]-5-oxo-6,7-dihydro-5H-5λ^4-thieno[3,2-d]pyrimidin-4-ylamino}-cyclopropyl)-methanol]
Second: [O-][S+]1CCc2nc(N3CCC(c4ccncc4)CC3)nc(Nc3cccc(F)c3)c21 (stereo not shown) [Example 1.12, (3-fluorophenyl)-[5-oxo-2-(3,4,5,6-tetrahydro-2H-[4,4′]bipyridinyl-1-yl)-6,7-dihydro-5H-5λ^4-thieno[3,2-d]pyrimidin-4-yl]-amine]
The IC50 of the first is lower: 1.89 nM for the first, greater than 10000 nM for the second.

Compared with `COCC(=O)NCC1(c2ccccc2)CCN(c2nc3c(c(NC4CCOCC4)n2)[S+]([O-])CC3)CC1` (stereo not shown) [Example 1.31, 2-methoxy-N-{1-[5-oxo-4-(tetrahydropyran-4-ylamino)-6,7-dihydro-5H-5λ^4-thieno[3,2-d]pyrimidin-2-yl]-4-phenylpiperidin-4-ylmethyl}-acetamide], `CN1C[C@@H](Nc2nc(N3CCC(c4nc(-c5ccccc5)c(-c5ccccc5)o4)CC3)nc3c2[S+]([O-])CC3)CCC1=O` (stereo partly drawn) [Example 1.38, (S)-5-{2-[4-(4,5-diphenyloxazol-2-yl)-piperidin-1-yl]-5-oxo-6,7-dihydro-5H-5λ^4-thieno[3,2-d]pyrimidin-4-ylamino}-1-methylpiperidin-2-one] is 28-fold lower in IC50: 5.7 nM for the first, 0.2 nM for the second. The second is the more potent here.

Compared with `CC(C)[C@H](CO)Nc1nc(N2CCC(c3ccc(Cl)cc3)CC2)nc2c1[S+]([O-])CC2` (stereo partly drawn) [Example 1.1, (R)-2-{2-[4-(4-chlorophenyl)-piperidin-1-yl]-5-oxo-6,7-dihydro-5H-5λ^4-thieno[3,2-d]pyrimidin-4-ylamino}-3-methylbutan-1-ol], `CCC[C@H](CO)Nc1nc(N2CCC(c3ccc(Cl)cc3)CC2)nc2c1[S+]([O-])CC2` (stereo partly drawn) [Example 1.3, (R)-2-{2-[4-(4-chlorophenyl)-piperidin-1-yl]-5-oxo-6,7-dihydro-5H-5λ^4-thieno[3,2-d]pyrimidin-4-ylamino}-pentan-1-ol] is 2.9-fold lower in IC50: 24.2 nM for the first, 8.3 nM for the second. The second is the more potent here.

Tested on: Sprague Dawley (SD) rats
Experiment: Oral glucose tolerance test in overnight fasted male Sprague Dawley rats
Assay type: in vivo, rat
Details: single oral dose 1 mg/kg, 60 min before oral glucose load 2 g/kg; versus vehicle control
Experimental: An oral glucose tolerance test is performed in overnight fasted male Sprague Dawley (SD) rats (RjHan:SD), with a weight of 320-350 g. A pre-dose blood sample is obtained by tail bleed. Blood glucose is measured with a glucometer, and the animals are randomized for blood glucose (n=6/group). Subsequently, the groups receive a single oral administration of either vehicle alone (0.5% aqueous hydroxyethyl-cellulose) or vehicle containing one of the PDE4 inhibitors. The animals receive an oral glucose load (2 g/kg) 60 min after compound administration. Blood glucose is measured in tail blood 15 min, 30 min, 60 min, 90 min, and 120 min after the glucose challenge. Glucose excursion is quantified by calculating the reactive glucose AUC (area under the curve). The data are presented as mean±SEM (standard error of mean). The two-sided unpaired Student t-test is used for statistical comparison of the control group and the active groups.
“Cpd. A” is the PDE4 inhibitor Example 1.35 at a dose of 1 and 3 mg/kg. “Cpd. B” is the PDE4 inhibitor Example 1.46 at a dose of 1 and 3 mg/kg. P values versus control are indicated by symbols above the bars (*, p<0.05). Cpd. A (=Example 1.35) reduces glucose excursion by 13.2 (p=0.09) and 15.0% (p=0.11) with a dose of 1 and 3 mg/kg, respectively. Cpd. […] Cpd.

With `[O-][S+]1CCc2nc(N3CCC(c4ncc(Cl)cn4)CC3)nc(NC3(CO)CCC3)c21` (stereo not shown) [Example 1.46, (1-{2-[4-(5-Chloro-pyrimidin-2-yl)-piperidin-1-yl]-5-oxo-6,7-dihydro-5H-5λ^4-thieno[3,2-d]pyrimidin-4-yl-amino}-cyclobutyl)-methanol] the “reduces glucose excursion (reactive glucose AUC)” value was 26.8%.

Same assay, conditions: single oral dose 3 mg/kg, 60 min before oral glucose load 2 g/kg; versus vehicle control

In the case of `[O-][S+]1CCc2nc(N3CCC(c4ncc(Cl)cn4)CC3)nc(NC3(CO)CCC3)c21` (stereo not shown) [Example 1.46, (1-{2-[4-(5-Chloro-pyrimidin-2-yl)-piperidin-1-yl]-5-oxo-6,7-dihydro-5H-5λ^4-thieno[3,2-d]pyrimidin-4-yl-amino}-cyclobutyl)-methanol], the “reduces glucose excursion (reactive glucose AUC)” value is reported as 18.4%.
